Assay results: PubChem BioAssay AID2061108 (Research group of Professor Matthew Todd, School of …, 2025)

What follows are compounds tested on E. coli NCTC 12923 growth inhibition, 100 uM (assay: microbial growth inhibition plus red cell haemolysis – Idler compounds, first plate, PMBN-permeabilized strains, profiling panel (AID 2061108)). Details: E. coli NCTC 12923 growth inhibition, 100 µM; stronger effect = higher value.

| Compound | inhibition |
| --- | --- |
| O=C(NC1(c2ccc(Cl)cc2)COC1)c1ccc(N2CCCCC2)cc1 | -30% |
| COc1cc2nc(Nc3cc(C)[nH]n3)nc(Nc3cc(C)[nH]n3)c2cc1OC | 12.7% |
| O=C(N/N=C/C1CCOCC1)c1ccncc1 | -1.62% |
| O=C(NC1(c2ccc(Br)cc2)COC1)c1ccc(N2CCOCC2)cc1 | -5.27% |
| O=S(=O)(F)c1ncc(Cl)cc1Br | -27.7% |
| O=S(=O)(F)c1cccc(NCc2ccc(F)cc2)n1 | -1.49% |
| C=CC(=O)N1CCC[C@H](CC(=O)O)C1 | -6.76% |
| O=C(NCCn1ccc2ccccc21)Nc1c[nH]c2ccccc12 | -5.81% |
| COc1cc2nc(NCCCN(C)C)nc(N3CC(N(C)C)C3)c2cc1OC | 11.5% |
| CS(=O)(=O)CCCNC[C@@H](O)c1ccccc1 | -6.89% |
| COc1ccc(-c2nc(N3CCC(N(C)C)C3)c3cc(OC)c(OC)cc3n2)cc1 (stereo not drawn) | 6.35% |
| O=C(Nc1ccc(-c2nn[nH]n2)cc1)c1ccc(Oc2ccccc2)cc1 | 0.27% |
| O=C(N/N=C/c1ccncc1O)c1ccncc1 | 18.6% |
| CN(C)C(=O)c1cncc(-c2cccc(C3(C#N)CC3)c2)c1 | -5% |

What follows are compounds tested on M. abscessus growth inhibition, 10 uM in the same assay as above. Details: S. aureus ATCC 9144 growth inhibition; measured here: M. abscessus; at 10 µM.

| Compound | inhibition |
| --- | --- |
| COc1cc2nc(Nc3cc(C)[nH]n3)nc(NC3CCN(C(=O)OC(C)(C)C)CC3)c2cc1OC | 0.14% |
| N#Cc1c(N2C[C@@H](CC(N)=O)[C@H](O)C2)nc2ccccc2c1C(F)(F)F | -0.687% |
| CCC(C)C(N)C(=O)NS(=O)(=O)c1cccc(-c2cc3ncnc(N)c3s2)c1 (stereo not drawn) | -0.383% |
| COc1ccc2c(c1)nc(-c1c[nH]c3cc(N4CCOCC4)ccc13)c1[nH]ccc12 | 0.186% |
| CC(N)C(=O)NS(=O)(=O)c1cccc(-c2cc3ncnc(N)c3s2)c1 (stereo not drawn) | -0.285% |
| O=C(Nc1ccc(OC2CCCCC2)cc1)c1ccc(-c2nn[nH]n2)cc1 | -1.07% |
| Nc1ncnc2cc(-c3cccc(S(=O)(=O)NC(=O)C4CCCN4)c3)sc12 (stereo not drawn) | -0.89% |
| N#Cc1c(Cl)nc2ccccc2c1C(F)(F)F | 0.0452% |
| CC(=O)NCCC(=O)NNC(=O)c1cc(-c2ccccn2)nc2ccccc12 | -0.278% |
| COc1cc(OC)cc(C2(NC(=O)c3ccc(N4CCOCC4)cc3)COC2)c1 | -0.558% |
| N#Cc1ccc(NC2Cc3cccc(O)c3C2)cc1Cl (stereo not drawn) | -0.909% |
| CCn1c(SCC(=O)N(C)c2ccccc2)nnc1-c1cn(C)nc1OC | 0.00036% |
| O=S(=O)(Nc1ccc(Oc2ccccc2)cc1)c1cccc(C(F)(F)F)c1 | -0.452% |
| Oc1ccc(CN2CCN(c3ccccc3F)CC2)c2cccnc12 | 0.148% |
| O=C(NC1(c2ccc(Cl)cc2)COC1)c1ccc(N2CCCCC2)cc1 | -0.149% |
| COc1cc2nc(Nc3cc(C)[nH]n3)nc(Nc3cc(C)[nH]n3)c2cc1OC | 0.769% |
| O=C(N/N=C/C1CCOCC1)c1ccncc1 | -2.72% |
| O=C(NC1(c2ccc(Br)cc2)COC1)c1ccc(N2CCOCC2)cc1 | -1% |
| O=S(=O)(F)c1ncc(Cl)cc1Br | -0.925% |
| O=S(=O)(F)c1cccc(NCc2ccc(F)cc2)n1 | -1.1% |
| C=CC(=O)N1CCC[C@H](CC(=O)O)C1 | -0.00311% |
| O=C(NCCn1ccc2ccccc21)Nc1c[nH]c2ccccc12 | 0.723% |
| COc1cc2nc(NCCCN(C)C)nc(N3CC(N(C)C)C3)c2cc1OC | 1.59% |
| CS(=O)(=O)CCCNC[C@@H](O)c1ccccc1 | -0.256% |
| COc1ccc(-c2nc(N3CCC(N(C)C)C3)c3cc(OC)c(OC)cc3n2)cc1 (stereo not drawn) | 0.735% |
| O=C(Nc1ccc(-c2nn[nH]n2)cc1)c1ccc(Oc2ccccc2)cc1 | -0.941% |
| O=C(N/N=C/c1ccncc1O)c1ccncc1 | -0.377% |
| CN(C)C(=O)c1cncc(-c2cccc(C3(C#N)CC3)c2)c1 | -0.0258% |

Each compound was assayed on M. avium growth inhibition, 10 uM in the same assay as above. Details: M. avium growth inhibition, 10 µM.

| Compound | inhibition |
| --- | --- |
| COc1cc2nc(Nc3cc(C)[nH]n3)nc(NC3CCN(C(=O)OC(C)(C)C)CC3)c2cc1OC | 3.94% |
| N#Cc1c(N2C[C@@H](CC(N)=O)[C@H](O)C2)nc2ccccc2c1C(F)(F)F | 0.858% |
| CCC(C)C(N)C(=O)NS(=O)(=O)c1cccc(-c2cc3ncnc(N)c3s2)c1 (stereo not drawn) | 10.3% |
| COc1ccc2c(c1)nc(-c1c[nH]c3cc(N4CCOCC4)ccc13)c1[nH]ccc12 | 1.53% |
| CC(N)C(=O)NS(=O)(=O)c1cccc(-c2cc3ncnc(N)c3s2)c1 (stereo not drawn) | 45.2% |
| O=C(Nc1ccc(OC2CCCCC2)cc1)c1ccc(-c2nn[nH]n2)cc1 | -0.389% |
| Nc1ncnc2cc(-c3cccc(S(=O)(=O)NC(=O)C4CCCN4)c3)sc12 (stereo not drawn) | 5.56% |
| N#Cc1c(Cl)nc2ccccc2c1C(F)(F)F | 0.667% |
| CC(=O)NCCC(=O)NNC(=O)c1cc(-c2ccccn2)nc2ccccc12 | -0.099% |
| COc1cc(OC)cc(C2(NC(=O)c3ccc(N4CCOCC4)cc3)COC2)c1 | -0.0617% |
| N#Cc1ccc(NC2Cc3cccc(O)c3C2)cc1Cl (stereo not drawn) | 0.34% |
| CCn1c(SCC(=O)N(C)c2ccccc2)nnc1-c1cn(C)nc1OC | -1.26% |
| O=S(=O)(Nc1ccc(Oc2ccccc2)cc1)c1cccc(C(F)(F)F)c1 | 0.528% |
| Oc1ccc(CN2CCN(c3ccccc3F)CC2)c2cccnc12 | -0.052% |
| O=C(NC1(c2ccc(Cl)cc2)COC1)c1ccc(N2CCCCC2)cc1 | 0.252% |
| COc1cc2nc(Nc3cc(C)[nH]n3)nc(Nc3cc(C)[nH]n3)c2cc1OC | 1.15% |
| O=C(N/N=C/C1CCOCC1)c1ccncc1 | 4.75% |
| O=C(NC1(c2ccc(Br)cc2)COC1)c1ccc(N2CCOCC2)cc1 | -0.734% |
| O=S(=O)(F)c1ncc(Cl)cc1Br | 0.219% |
| O=S(=O)(F)c1cccc(NCc2ccc(F)cc2)n1 | 1.19% |
| C=CC(=O)N1CCC[C@H](CC(=O)O)C1 | 0.225% |
